Assay results: US5912245A, “Acid amide derivatives and process for the preparation thereof” (Egis Gyogyszergyar RT., priority 1994, dated 1999)
“Also recorded” adds a separate entry of the source.

Tests used:
AMPA recognition site = experiment: ^3H-AMPA binding (radioligand competitive binding assay); parameters: species or system rat; conditions: compared with DNQX
Method: (§1) 1. ^3 H-AMPA and ^3 H-kainate binding (radioligand competitive binding assay)
(§2) The experiment was carried out according to the method of Murphy et al. [D. E. Murphy, E. W. Snowhill, M. Williams: Neurochem. Res. 12, 775-782 (1987)] using a membrane specimen isolated from rat brain. The binding of kainate labeled with tritium on a rat cortex specimen was measured according to the method of Honore et al. [T. Honore, J. Dejer and M. Nielsen: Neurosci. Lett. 65, 48-52 (1986)].

kainate recognition site = experiment: ^3H-kainate binding (radioligand competitive binding assay); parameters: species or system rat; conditions: compared with DNQX
Method: as §1, §2

[1] = target: NMDA (CGS 19755 receptor); experiment: Selectivity: CGS 19755 receptor binding test
Method: The experiment was carried out according to the method of Foster et al. [A. Foster and E. H. F. Wong: Brit.

AMPA and kainate = AMPA and kainate antagonism (overall conclusion from the binding and selectivity tests)
Method: as §2
The experiment was carried out according to the method of Foster et al. [A. Foster and E. H. F. Wong: Brit. J. Pharmacol. 91, 403-409, (1987)]. When applying the CGS 19755 receptor binding test the method of Murphy et al. [D. E. Murphy, A. J. Hutchison, S. D. Hurt, M. Williams and M. A. Sills: Brit. J. Pharmacol. 95, 932-938 (1988)] was applied.

AMPA = conditions: cited from earlier work

Binding of ^3H-CGS-19755 Ki [1] | AMPA and kainate antagonism, in words (AMPA and kainate) | SMILES | displacement of labeled AMPA, in words (AMPA recognition site) | displacement of labeled kainate, in words (kainate recognition site) | AMPA antagonizing property, in words (AMPA)
not "converge" | selective AMPA and kainate antagonists | O=c1[nH]c2cc([N+](=O)[O-])c(S(=O)(=O)NCCN3CCCCC3)cc2[nH]c1=O [Example 17, 1,2,3,4-Tetrahydro-7-nitro-2,3-dioxo-N-(2-piperidinoethyl)-6-quinoxaline sulfonamide] | affinity similar to that of DNQX; also recorded: good reversible ligand | affinity similar to that of DNQX; also recorded: good reversible ligand | 
 |  | N#Cc1cc2[nH]c(=O)c(=O)[nH]c2cc1[N+](=O)[O-] [CNQX, 6-cyano-7-nitro-quinoxaline-2,3-dione] |  |  | selective AMPA antagonizing property
does not "converge" | selective AMPA and kainate antagonists | O=c1[nH]c2cc([N+](=O)[O-])c(S(=O)(=O)N(CCO)CCO)cc2[nH]c1=O [Example 24, N,N-bis(2-Hydroxyethyl)-1,2,3,4-tetrahydro-7-nitro-2,3-dioxo-6-quinoxaline sulfonamide] |  |  | 

SMILES | Binding of ^3H-CGS-19755 Ki [1] | AMPA and kainate antagonism, in words (AMPA and kainate) | displacement of labeled AMPA, in words (AMPA recognition site) | displacement of labeled kainate, in words (kainate recognition site) | AMPA antagonizing property, in words (AMPA)
O=c1[nH]c2cc([N+](=O)[O-])c([N+](=O)[O-])cc2[nH]c1=O [DNQX, 6,7-dinitroquinoxaline-2,3-dione, reference compound] | does not "converge" |  |  |  | selective AMPA antagonizing property
